Reference: patent publication US20220073536A1 (Rigel Pharmaceuticals, Inc., priority 2003, published 2022)
Like-named read-outs stand apart in the source and are kept apart here. Blank lines part the entries; values can stand above or below the compound they belong to.

System: cultured human mast cells (CHMC)
Assay: CHMC low cell density IgE activation: tryptase assay
Format: cell-based
Conditions: IgE activation
Method in brief: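 Anti-IgE-driven degranulation of cultured human mast cells at low density, 1000–1500 cells/well, was induced over 30 min at 37 °C. It was scored by supernatant tryptase activity on a fluorogenic substrate.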

[1] = Homo sapiens, Mast cell, low cell density, 8 pt, read-out: LD Tryptase, CHMC, IgE, 8 pt
[2] = Homo sapiens, Mast cell, low cell density, 3 pt, read-out: LD Tryptase, CHMC, IgE, 3 pt
[3] = Homo sapiens, Mast cell, low cell density CHMC, tryptase, 3 pt, read-out: LD Tryptase, CHMC, IgE, 3 pt
[4] = Homo sapiens, Mast cell, low cell density CHMC, tryptase, 8 pt, read-out: LD Tryptase, CHMC, IgE, 8 pt
[5] = low cell density CHMC, tryptase, 3 pt, read-out: LD Tryptase, CHMC, IgE, 3 pt
[6] = Homo sapiens, Mast cell, low cell density CHMC, tryptase release, 3 pt, read-out: LD Tryptase, CHMC, IgE, 3 pt
[7] = Homo sapiens, Mast cell, low cell density CHMC, tryptase release, 8 pt, read-out: LD Tryptase, CHMC, IgE, 8 pt

Compound: COC(=O)c1cc(Nc2ncc(F)c(Nc3c(C)noc3C)n2)cc(-c2ncco2)c1 [Compound 535]
IC50 [2]: < 10 µM

Compound: COc1ccc(Nc2ncc(F)c(Nc3ccc(C(N)=O)cc3)n2)cc1Cl [Compound 1336]
IC50 [3]: < 10 µM
IC50 [4]: < 10 µM

Compound: Cc1cc(Nc2ncc(F)c(Nc3ccc4c(c3)OC(F)(F)C(F)(F)O4)n2)cc(C(F)(F)F)c1 [Compound 366, 5-Fluoro-N2-(3-methyl-5-trifluoromethyl)-N4-[3,4-(tetrafluoroethylenedioxy)phenyl]-2,4-pyrimidinediamine]
IC50 [5]: < 10 µM

Compound: CN1CCN(c2ccc(Nc3ncc(F)c(NC4CNC4)n3)cc2)CC1 [Compound 1131]
IC50 [3]: > 10 µM

Compound: COc1cc(Nc2ncc(F)c(Nc3ccc4c(c3)NC(=O)C(C)S4(=O)=O)n2)cc(OC)c1OC (stereo not shown) [Compound 266]
IC50 [6]: < 10 µM
IC50 [7]: < 10 µM

Compound: COc1ccc(Nc2ncc(F)c(Nc3ccc4c(c3)NC(=O)C(C)S4(=O)=O)n2)cc1Cl (racemic) [Compound 286]
IC50 [7]: < 10 µM

Compound: COc1ccc(Nc2nc(Nc3cc(OC)c(Cl)cc3OC)ncc2F)cc1Cl [Compound 377]
IC50 [3]: < 10 µM

Compound: C[C@@H]1Oc2ccc(Nc3nc(Nc4ccc5c(cnn5CCCN5C(=O)c6ccccc6C5=O)c4)ncc3F)cc2NC1=O [Compound 818, (S)-5-Fluoro-N4-(2-methyl-3-oxo-2H,4H-benz[1,4]oxazin-6-yl)-N2-[1-[3-(N-phthalimidopropyl)]indazol-5-yl]-2,4-pyrimidinediamine]
IC50 (low cell density CHMC, tryptase release, 8 pt, read-out: LD Tryptase, CHMC, IgE, 8 pt): < 10 µM

Compound: Cc1cc2c(cnn2C)cc1Nc1ncc(F)c(Nc2ccc(Cl)c(Cl)c2)n1 [Compound 757, N4-(3,4-Dichlorophenyl)-N2-(1,6-dimethylindazol-5-yl)-5-fluoro-2,4-pyrimidinediamine]
IC50 [3]: < 10 µM

Next, values leading:

IC50 [1]: < 10 µM
Compound: Cc1nc2cc(Nc3ncc(F)c(Nc4ccc5c(c4)NC(=O)C(C)(C)O5)n3)ccc2n1CCCO [Compound 949]

IC50 [3]: < 10 µM
Compound: CC(C)Nc1nc(Nc2ccc(N3CCN(C)CC3)c(C(F)(F)F)c2)ncc1F [Compound 1210]

IC50 [6]: < 10 µM
IC50 [7]: < 10 µM
Compound: Cc1cc(C)cc(Nc2ncc(F)c(Nc3ccc4c(c3)NC(=O)C(C)S4(=O)=O)n2)c1 (stereo not shown) [Compound 264]

IC50 [5]: < 10 µM
IC50 (low cell density CHMC, tryptase, 8 pt, read-out: LD Tryptase, CHMC, IgE, 8 pt): < 10 µM
Compound: C[C@H]1Oc2ccc(Nc3nc(Nc4cccc(CN)c4)ncc3F)cc2NC1=O [Compound 1280]

IC50 [3]: < 10 µM
IC50 [4]: < 10 µM
Compound: COc1ccc(Nc2nc(Nc3ccc4cnn(CC5CCCCC5)c4c3)ncc2F)cc1Cl [Compound 722, N4-(3-Chloro-4-methoxyphenyl)-N2-[1-(cyclohexylmethyl)indazol-6-yl]-5-fluoro-2,4-pyrimidinediamine]

IC50 (low cell density CHMC, tryptase readout, 8 pt, read-out: LD Tryptase, CHMC, IgE, 8 pt): < 10 µM
Compound: CNC(=O)COc1cccc(Nc2ncc(F)c(Nc3ccc4c(c3)NC(=O)C(C)(C)O4)n2)c1C [Compound 1067, N4-(2,2-Dimethyl-3-oxo-4H-benz[1,4]oxazin-6-yl)-5-fluoro-N2-[2-methyl-3-(N-methylamino)carbonylmethyleneoxyphenyl]-2,4-pyrimidinediamine]

IC50 [4]: < 10 µM
Compound: CCCn1ncc2cc(Nc3ncc(F)c(Nc4ccc5c(c4)NC(=O)C(C)(C)O5)n3)ccc21 [Compound 704, N4-(2,2-Dimethyl-3-oxo-4H-benz[1,4]oxazin-6-yl)-5-fluoro-N2-(1-n-propylindazol-5-yl)-2,4-pyrimidinediamine]

IC50 [2]: < 10 µM
IC50 [1]: < 10 µM
Compound: CCOCCCn1ncc2cc(Nc3ncc(F)c(Nc4ccc5c(c4)NC(=O)[C@H](C)O5)n3)ccc21 [Compound 874, (S)-N2-[1-(3-Ethoxypropyl)indazol-5-yl]-5-fluoro-N4-(2-methyl-3-oxo-2H,4H-benz[1,4]oxazin-6-yl)-2,4-pyrimidinediamine]

IC50 [3]: < 10 µM
IC50 [4]: < 10 µM
Compound: Cc1nn(C)c2cc(Nc3ncc(F)c(Nc4ccc(Cl)c(Cl)c4)n3)ccc12 [Compound 753, N4-(3,4-Dichlorophenyl)-N2-(1,3-dimethylindazol-6-yl)-5-fluoro-2,4-pyrimidinediamine]
